Test results: article PMC11697777, “How ligands modulate the gastric H,K-ATPase activity and its inhibition by tegoprazan” (The Journal of Biological Chemistry, 2024)
Where two headings read alike, the source gives them in different places.

Molecular target: T1, gastric H,K-ATPase (Sus scrofa, UniProt P19156)
T1 construct: We prepared H,K-ATPase (EC 7.2.2.19)-enriched membrane vesicles according to Sachs et al; from tissue; host or cells: gastric membrane vesicles
Assay: H,K-ATPase activity (Pi release from ATP) inhibition, steady-state kinetic analysis
Type: biochemical, hog
Conditions: for IC50: 10 mM KCl, read-out: K0.5 for inhibition of ATPase activity; for Kd: fit of model III (binding to E2P and E1ATP), 37 °C
Protocol: We prepared H,K-ATPase (EC 7.2.2.19)-enriched membrane vesicles according to Sachs et al. ([36]), with slight modifications. The number of nucleotide sites measured under optimal conditions (2.2 mM ATP, 4 mM MgCl2, 0.25 mM EDTA in 25 mM imidazole–HCl, pH 7.4 at 25 °C) was 1.4 nmol per mg of protein. This preparation is essentially free of contamination with Na,K-ATPase, as evidenced by the lack of ouabain-sensitive activity. 0.4 to 0.6 mg alamethicin per milligram protein was used to permeabilize the vesicles.
ATP hydrolysis by H,K-ATPase was measured by following the time course of Pi release at 37 °C; linearity was always checked in order to ensure initial rate conditions. Pi concentration was determined according to the method described by Baginski et al. ([37]) Incubations were performed at 37 °C in media containing 8 μg protein ml^−1, 2 mM ATP, 4 mM MgCl2, and 0.25 mM EDTA in 20 mM imidazole – 20 mM Tris (varying pH) in a final volume of 0.25 ml. KCl concentrations varied between 0 and 100 mM, using choline chloride to adjust total monovalent salt concentration to 150 mM. Reaction blanks were determined by measuring ATP hydrolysis in media containing vanadate. For experiments at variable pH, a buffer combination of 20 mM imidazole-HCl and 20 mM Tris–HCl was used. Tegoprazan and SCH28080 were dissolved in DMSO. The final DMSO concentration in the reaction media was 1%.
were fitted to the data of ATPase activity by nonlinear regression based on the Gauss–Newton algorithm by commercial programs ([38]). Kis parameters are apparent dissociation constants expressed in concentration units, whereas the ais parameters are coefficients with units of activity. A methodical exploration of the equation that best fits each set of results was performed. We first determined the degree of the polynomials in the numerator and the denominator (considering the restriction of n ≤ d and m ≤ d to conform to steady-state equations for enzymes) and then evaluated the contribution of terms of intermediate degree. The goodness of fit of a given equation to the experimental results was evaluated by the AICc ([39]) defined as(5) AICc=N·ln(SS/N)+2·(K+1)·N/(N−K−2) with N: number of data, K: number of parameters, and SS: sum of weighted square residual errors. This criterion allows one to select among multiple equations, the one that best describes the behavior of the experimental data using the least number of parameters, that is the lower value of AICc.
The equations of activity as a function of ligands for each kinetic model were attained using the Mathematica for Windows program. To determine the parameters that will be used to simulate the data, the rate constants and pKa values were fitted to the results using a procedure based on the Gauss–Newton algorithm until the SD of the residual errors reaches a minimal value.

T1 sequence (P19156 2-1034 limits assumed): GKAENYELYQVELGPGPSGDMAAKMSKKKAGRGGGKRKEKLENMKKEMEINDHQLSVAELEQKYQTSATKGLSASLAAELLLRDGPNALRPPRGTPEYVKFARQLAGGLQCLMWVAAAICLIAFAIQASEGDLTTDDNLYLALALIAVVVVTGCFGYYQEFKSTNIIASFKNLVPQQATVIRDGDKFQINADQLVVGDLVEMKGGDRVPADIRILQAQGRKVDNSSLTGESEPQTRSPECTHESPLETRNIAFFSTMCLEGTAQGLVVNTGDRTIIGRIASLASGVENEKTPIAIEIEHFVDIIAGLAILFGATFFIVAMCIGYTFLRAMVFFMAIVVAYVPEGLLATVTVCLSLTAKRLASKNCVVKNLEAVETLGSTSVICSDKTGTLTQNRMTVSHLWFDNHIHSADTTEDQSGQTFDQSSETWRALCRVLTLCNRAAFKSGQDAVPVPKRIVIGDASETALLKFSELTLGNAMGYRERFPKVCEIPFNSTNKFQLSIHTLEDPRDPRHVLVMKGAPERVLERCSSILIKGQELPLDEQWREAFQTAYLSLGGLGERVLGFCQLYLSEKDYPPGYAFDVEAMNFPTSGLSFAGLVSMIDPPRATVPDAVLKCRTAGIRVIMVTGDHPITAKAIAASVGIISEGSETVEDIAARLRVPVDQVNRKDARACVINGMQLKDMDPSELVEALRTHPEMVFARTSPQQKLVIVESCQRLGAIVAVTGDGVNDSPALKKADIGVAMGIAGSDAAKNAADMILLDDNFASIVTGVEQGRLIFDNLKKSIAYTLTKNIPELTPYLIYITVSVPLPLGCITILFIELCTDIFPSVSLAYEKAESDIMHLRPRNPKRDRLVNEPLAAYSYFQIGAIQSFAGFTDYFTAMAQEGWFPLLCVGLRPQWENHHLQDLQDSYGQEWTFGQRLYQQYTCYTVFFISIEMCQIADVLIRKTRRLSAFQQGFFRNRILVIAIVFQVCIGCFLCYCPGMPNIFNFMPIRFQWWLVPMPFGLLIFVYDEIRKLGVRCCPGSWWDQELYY
T1 sequence (P18434 whole entry partner): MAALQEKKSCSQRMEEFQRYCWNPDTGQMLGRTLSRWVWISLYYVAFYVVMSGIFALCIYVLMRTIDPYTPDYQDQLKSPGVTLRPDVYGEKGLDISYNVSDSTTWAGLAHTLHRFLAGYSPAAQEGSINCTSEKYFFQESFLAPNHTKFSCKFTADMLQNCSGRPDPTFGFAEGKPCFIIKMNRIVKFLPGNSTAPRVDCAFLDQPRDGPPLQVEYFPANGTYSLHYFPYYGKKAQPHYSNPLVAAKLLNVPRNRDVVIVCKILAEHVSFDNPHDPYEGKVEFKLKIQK

## Cc1nc2c(O[C@H]3CCOc4cc(F)cc(F)c43)cc(C(=O)N(C)C)cc2[nH]1 [tegoprazan, (S)-4-((5,7-difluorochroman-4-yl)oxy)-N,N,2-trimethyl−1Hbenzo[d]imidazole-6-carboxamide]
[K+] 0-15 mM, pH 7.2
  effect of inhibitor on K0.5 for potassium (Equation 3): increase in K0.5
  effect of inhibitor on Vmax (Equation 3): decrease in Vmax
[K+] 0-75 mM
  effect of inhibitor on K1, apparent high-affinity dissociation constant for K+ (Equation 1): increase in K1
  effect of inhibitor on K2, apparent low-affinity dissociation constant for K+ (Equation 1): slight increase
  effect of inhibitor on a1, theoretical maximal activity (Equation 1): decreases as a function of the inhibitor concentration
Fit of model II (binding to E2P and E2KATP), [K+] 0-75 mM
  Kii, equilibrium constant for low-affinity binding (E2KATP), model II: 3.55 µM
Fit of model II (binding to E2P and E2KATP), [K+] 0-75 mM, read-out: Ki, equilibrium constant for high-affinity binding (E2P), model II
  Ki: 410 nM
pH 6.2
  IC50: 890 ± 40 nM
pH 7.2
  IC50: 3250 ± 290 nM
pH 7.2, [K+] 0-75 mM, read-out: apparent Kd / apparent affinity constant, high-affinity binding (Ki) to E2P, model III
  Kd: 560 ± 40 nM
pH 7.2, [K+] 0-75 mM, read-out: apparent Kd / apparent affinity constant, low-affinity binding (Kii) to E1ATP, model III
  Kd: 2700 ± 240 nM
